Assay results: patent publication US20050032124A1, “Identification of genotype-selective agents for treating Huntington's disease” (priority 2003, published 2005)
Converted amounts (≈) assume the structure as drawn. Read-outs that look alike come from different tables or passages of the source.

Experiments:
Assay in all cases: Calcein AM viability assay, dilution-series retest
TIP5/TERT/E6/E7/ST cells = assay type: cell-based, human; settings: Homo sapiens, 48 h, read-out: IC50, TIP5-TERT/E6E7 ST
Description: (§1) In a third series, cell lines derived from independently prepared human TIP5 foreskin fibroblasts created by introducing cDNA constructs encoding hTERT, LT, ST and RASV12 (Lessnick et al., 2002, Cancer Cell 1, 393-401) were used. These cell lines were called, respectively: TIP5/TERT, TIP5/TERT/LT, TIP5/TERT/LT/ST, and TIP5/TERT/LT/ST/RAS^V12. In a fourth series, cell lines derived from TIP5 fibroblasts created by introducing cDNA constructs encoding hTERT, E6, E7, ST and RAS^V12 were used. These cell lines were named, respectively: TIP5/TERT/E6, TIP5/TERT/E6/E7, TIP5/TERT/E6/E7/ST, and TIP5/TERT/E6/E7/ST/RAS^V12. In this series, HPV E6 and E7, which inactivate p53 and RB, respectively, serve a similar function as LT in the previous series. However, by using HPV E6 and E7, Applicants were able to observe the effects of inactivating, separately and independently, p53 and RB. Results of a large-scale screen for compounds that display selective killing of these engineered tumorigenic cell lines are described in the examples that follow.
(§2) Calcein acetoxylmethyl ester (AM) is a cell membrane-permeable, non-fluorescent compound that is cleaved by intracellular esterases to form the anionic, cell-impermeable, fluorescent compound calcein. Viable cells are stained by calcein because of the presence of intracellular esterases and because the intact plasma membrane prevents fluorescent calcein from leaking out of cells (Wang et al., 1993, supra). Cells were seeded in 384-well plates using a Zymark Sciclone ALH, treated with each compound in triplicate at 4 μg/mL in the primary screen for two days, washed with phosphate-buffered saline on a Packard Minitrak with a 384-well washer and incubated for four hours with 0.7 μg/mL calcein (Molecular Probes). Total fluorescence intensity in each well was recorded on a Packard Fusion platereader, and converted to a percent inhibition of signal by subtracting the instrument background and dividing by the average signal obtained when cells were not treated with any compound.
(§3) Replica daughter plates were prepared with a Zymark Sciclone ALH and integrated Twister II by diluting stock plates 50 fold in medium lacking serum and pen/strep to obtain a compound concentration in daughter plates of 80 μg/ml with 2% DMSO. Assay plates were prepared by seeding cells in black, clear bottom 384-well plates in columns 1-23 (6000 cells/well in 57 μl) using a syringe bulk dispenser. Columns 3-22 were treated with compounds from a daughter library plate by transferring 3 μl from the daughter library plate using 384-position fixed cannula array. The final compound concentrations in assay plates were thus 4 μg/ml. The assay plates were incubated for 48 hours at 37° C. in humidified incubator containing 5% CO2. Plate processing for the calcein AM viability assay was performed using an integrated Minitrak/Sidetrak robotic system from Packard Bioscience (Perkin Elmer). Assay plates were washed with phosphate buffered saline, and 20 μl of calcein AM (0.7 μg/ml) per well was added. Plates were incubated at room temperature for 4 hours. Fluorescence intensity was determined using a Fusion platereader with filters centered on an excitation of 485 nm and an emission of 535 nm.
(§4) Compounds to be retested were purchased from manufacturers. Stocks were prepared in DMSO at a concentration of 1 mg/ml in 384-well polypropylene plates with a 16-point, two-fold dilution dose curve of each compound in a column, in duplicates. Column 1-2 and 23-24 were left empty for controls. Daughter retest plates were prepared from stock retest plate by diluting 66.6 fold in DMEM in 384-well deep-deep well plates (4.5 μl transfer into 300 μl). Cells were seeded at a density of 6000 per well in 40 μl, and 20 μl was added from a daughter retest plate. The plates were incubated for two days at 37° C. with 5% CO2.
(§5) Mean RFU (relative fluorescence units) for untreated cells was calculated by averaging columns 1, 2, and 23 (wells with cells but lacking compounds). […]

[1] = test system: TIP5/TERT/LT/ST/RAS^V12 cells; assay type: cell-based, human; settings: Homo sapiens, 48 h, read-out: IC50, TIP5 TERT/LT/ST/Ras^V12
Description: as §1, §2, §3, §4, §5

[2] = test system: TIP5/TERT/E6/E7/ST/RAS^V12 cells; assay type: cell-based, human; settings: Homo sapiens, 48 h, read-out: IC50, TIP5-TERT/E6E7 ST/Ras^V12
Description: as §1, §2, §3, §4, §5

TIP5/TERT/E6/E7 cells = assay type: cell-based, human; settings: for IC50: Homo sapiens, 48 h, read-out: IC50, TIP5-TERT/E6E7
Description: as §1, §2, §3, §4, §5

TIP5/TERT/E6 cells = assay type: cell-based; settings: Homo sapiens, 48 h, read-out: IC50, TIP-TERT/E6
Description: as §1, §2, §3, §4, §5

TIP5/TERT/LT/ST cells = assay type: cell-based; settings: Homo sapiens, 48 h, read-out: IC50, TIP5 TERT/LT/ST
Description: as §1, §2, §3, §4, §5

[3] = test system: BJ-TERT/LT/ST/RAS^V12 tumorigenic cells; assay type: cell-based, human; settings: for IC50: Homo sapiens, 48 h, read-out: IC50, BJ-TERT/LT/ST/Ras^V12; for Tumor Selectivity: IC50 in primary BJ cells divided by IC50 in BJ-TERT/LT/ST/RAS^V12 tumorigenic cells
Protocol: Described here is work carried out to identify compounds with increased potency or activity in the presence of hTERT, LT, ST, E6, E7 or RAS^V12. […] The primary screen tested (in quadruplicate) the effect of treating tumorigenic BJ-TERT/LT/ST/RAS^V12 engineered tumorigenic cells with each compound for 48 hours at a concentration of 4 μg/mL, corresponding to 10 μM for a compound with a molecular weight of 400, which is the approximate median molecular weight of the libraries. Cell viability was measured using the dye calcein acetoxymethyl ester (calcein AM) (Wang et al., 1993, Hum. Immunol. 3 7, 264-270), which is a non-fluorescent compound that freely diffuses into cells. In live cells, calcein AM is cleaved by intracellular esterases, forming the anionic fluorescent derivative calcein, which cannot diffuse out of live cells. […] The IC50 value (concentration required to inhibit 50% of the calcein AM signal) was calculated for each compound in each cell line (Table 1).
as §2, §3, §4

[4] = BJ-TERT/LT/ST/Ras^V12 cells, 16-point two-fold dilution, two days
[5] = TIP5-TERT/E6E7/ST cells, 16-point two-fold dilution, two days
[6] = TIP5 TERT/LT/ST/Ras^V12 cells, 16-point two-fold dilution, two days
[7] = TIP5-TERT/E6E7/ST/Ras^V12 cells, 16-point two-fold dilution, two days
[8] = TIP5-TERT/E6E7 cells, 16-point two-fold dilution, two days
[9] = TIP-TERT/E6 cells, 16-point two-fold dilution, two days
[10] = TIP5 TERT/LT/ST cells, 16-point two-fold dilution, two days

SMILES	IC50 (TIP5/TERT/E6/E7/ST cells)	IC50 [1]	IC50 [2]	IC50 (TIP5/TERT/E6/E7 cells)	IC50 (TIP5/TERT/E6 cells)	IC50 (TIP5/TERT/LT/ST cells)	IC50 [3, 4]	Tumor Selectivity [3]	IC50 (TIP5/TERT/E6/E7/ST cells; [5])	IC50 [1, 6]	IC50 [2, 7]	activity in cells lacking RB function (via expression of E7) (TIP5/TERT/E6/E7 cells)	IC50 (TIP5/TERT/E6/E7 cells; [8])	IC50 (TIP5/TERT/E6 cells; [9])	IC50 (TIP5/TERT/LT/ST cells; [10])	IC50 [3]
COc1ccc(C[C@H]2C(=O)N[C@@H](C)C(=O)N(C)[C@@H]3C(=O)N(C)[C@@H](Cc4ccc(O)c(c4)Oc4ccc(cc4)[C@@H]3O)C(=O)N[C@H](C)C(=O)N[C@@H](C)C(=O)N2C)cc1 [Bouvardin]	0.039 µg/mL (≈ 0.0505 µM)	0.039 µg/mL (≈ 0.0505 µM)	0.078 µg/mL (≈ 0.101 µM)	0.039 µg/mL (≈ 0.0505 µM)	0.078 µg/mL (≈ 0.101 µM)	0.039 µg/mL (≈ 0.0505 µM)	0.078 µg/mL (≈ 0.101 µM)	4	–	–	–	–	–	–	–	–
CC[C@@]1(O)C(=O)OCc2c1cc1n(c2=O)Cc2cc3ccccc3nc2-1 [Camptothecin]	–	–	–	–	–	–	0.0195 µg/mL (≈ 0.056 µM)	>512	0.156 µg/mL (≈ 0.448 µM)	0.156 µg/mL (≈ 0.448 µM)	0.156 µg/mL (≈ 0.448 µM)	partially active	0.625 µg/mL (≈ 1.79 µM)	> 5 µg/mL	0.156 µg/mL (≈ 0.448 µM)	–
COc1cccc2c1C(=O)c1c(O)c3c(c(O)c1C2=O)C[C@@](O)(C(C)=O)C[C@@H]3O[C@H]1C[C@H](N)[C@H](O)[C@H](C)O1 [Daunorubicin]	0.625 µg/mL (≈ 1.18 µM)	0.825 µg/mL (≈ 1.56 µM)	0.625 µg/mL (≈ 1.18 µM)	0.625 µg/mL (≈ 1.18 µM)	5 µg/mL (≈ 9.48 µM)	0.625 µg/mL (≈ 1.18 µM)	0.312 µg/mL (≈ 0.591 µM)	16	–	–	–	–	–	–	–	–
COc1cccc2c1C(=O)c1c(O)c3c(c(O)c1C2=O)C[C@@](O)(C(=O)CO)C[C@@H]3O[C@H]1C[C@H](N)[C@H](O)[C@H](C)O1 [Doxorubicin]	–	–	–	–	–	–	1.25 µg/mL (≈ 2.3 µM)	>8	1.25 µg/mL (≈ 2.3 µM)	0.625 µg/mL (≈ 1.15 µM)	1.25 µg/mL (≈ 2.3 µM)	–	1.25 µg/mL (≈ 2.3 µM)	5 µg/mL (≈ 9.2 µM)	0.625 µg/mL (≈ 1.15 µM)	–
CS[C@H]1SC[C@H]2C(=O)N(C)[C@@H](C(C)C)C(=O)OC[C@@H](NC(=O)c3cnc4ccccc4n3)C(=O)N[C@@H](C)C(=O)N(C)[C@@H]1C(=O)N(C)[C@@H](C(C)C)C(=O)OC[C@@H](NC(=O)c1cnc3ccccc3n1)C(=O)N[C@@H](C)C(=O)N2C [Echinomycin]	0.048 µg/mL (≈ 0.0436 µM)	0.0024 µg/mL (≈ 0.00218 µM)	0.0048 µg/mL (≈ 0.00436 µM)	0.048 µg/mL (≈ 0.0436 µM)	> 5 µg/mL	0.0048 µg/mL (≈ 0.00436 µM)	–	>8333	–	–	–	–	–	–	–	0.0012 µg/mL (≈ 0.00109 µM)
CCOc1ccccc1-n1c(C(C)N2CCN(C(=O)COc3ccc(Cl)cc3)CC2)nc2ccccc2c1=O (centres unmarked) [Erastin]	–	–	–	–	–	–	1.25 µg/mL (≈ 2.28 µM)	>8	> 5 µg/mL	2.5 µg/mL (≈ 4.57 µM)	5 µg/mL (≈ 9.14 µM)	–	> 5 µg/mL	> 5 µg/mL	5 µg/mL (≈ 9.14 µM)	–
O=C1c2c(O)ccc(O)c2C(=O)c2c(NCCNCCO)ccc(NCCNCCO)c21 [Mitoxantrone]	–	–	–	–	–	–	0.312 µg/mL (≈ 0.702 µM)	18	0.625 µg/mL (≈ 1.41 µM)	1.25 µg/mL (≈ 2.81 µM)	1.25 µg/mL (≈ 2.81 µM)	–	0.625 µg/mL (≈ 1.41 µM)	1.25 µg/mL (≈ 2.81 µM)	0.625 µg/mL (≈ 1.41 µM)	–
NC(=O)c1cn([C@@H]2O[C@H](CO)[C@@H](O)[C@H]2O)c2ncnc(N)c12 [Sangivamycin]	0.078 µg/mL (≈ 0.252 µM)	0.078 µg/mL (≈ 0.252 µM)	0.078 µg/mL (≈ 0.252 µM)	0.078 µg/mL (≈ 0.252 µM)	0.156 µg/mL (≈ 0.504 µM)	0.039 µg/mL (≈ 0.126 µM)	0.078 µg/mL (≈ 0.252 µM)	4	–	–	–	–	–	–	–	–
